Reference: PubChem BioAssay (NCI)
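Protocol summary: plate cells (96-well), add compound at 5 concentrations, incubate 48 h, interpolate endpoints linearly. GI50 marks 50% less growth. TGI is the concentration that stops growth completely.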 Where a SMILES comes first, the peptide text is derived from it. [ ]: non-standard residue; d: D form. The star is where a group is joined. Bn2Val = CC(C)[C@@H](C(=O)*)N(Cc1ccccc1)Cc1ccccc1; NH(4-Cl-benzyl) = Clc1ccc(CN*)cc1; NMeV = CN[C@H](C(=O)O)C(C)C; dNMeA = CN[C@H](C)C(=O)O

Key:
Assay in all cases: inhibition of tumour cell growth, NCI panel, 48 h
CCRF-CEM leukemia = test system: CCRF-CEM leukemia
HCT-15 colon = test system: HCT-15 colon
HOP-92 NSCLC = test system: HOP-92 NSCLC
K-562 leukemia = test system: K-562 leukemia
KM12 colon = test system: KM12 colon
MDA-MB-231 breast = test system: MDA-MB-231 breast
MDA-MB-435 = test system: MDA-MB-435
OVCAR-4 ovarian = test system: OVCAR-4 ovarian
TK-10 renal = test system: TK-10 renal
HCC-2998 colon = test system: HCC-2998 colon

| SMILES | GI50 (CCRF-CEM leukemia) | TGI (CCRF-CEM leukemia) | TGI (HCT-15 colon) | TGI (HOP-92 NSCLC) | TGI (K-562 leukemia) | TGI (KM12 colon) | TGI (MDA-MB-231 breast) | TGI (MDA-MB-435) | TGI (OVCAR-4 ovarian) | TGI (TK-10 renal) | TGI (HCC-2998 colon) | GI50 (HCT-15 colon) | GI50 (K-562 leukemia) | GI50 (MDA-MB-435) |
| --- | --- | --- | --- | --- | --- | --- | --- | --- | --- | --- | --- | --- | --- | --- |
| C#CCn1c(=O)c(C)cn(/C(=C\C(=O)OCC)C(=O)OCC)c1=O | 700 nM | 8 µM | 8.23 µM | 5.17 µM | > 100 µM | 53.6 µM | 31.2 µM | 21.2 µM | 6.35 µM | 3.44 µM |  |  |  |  |
| COc1cc2cc(C(=O)N3CC(COS(C)(=O)=O)c4ccc(O)cc43)[nH]c2c(OC)c1OC (stereo not drawn) |  | > 100 µM | 0.000858 µM | 0.638 µM |  | 0.0033 µM | 0.000328 µM | 0.000212 µM |  | 14 µM | < 0.0001 µM |  |  |  |
| O=C(O)c1ccccc1N=Cc1ccc(N(CCCl)CCCl)cc1 |  | > 100 µM | > 100 µM | > 100 µM | > 100 µM | > 100 µM |  |  | > 100 µM |  | > 100 µM |  |  |  |
| CN(C)/N=N/c1nc2c(c(=O)n(C)c(=O)n2C)n1CC(O)CO (stereo not drawn) |  | > 100 µM | > 100 µM |  | > 100 µM | > 100 µM | > 100 µM | > 100 µM | > 100 µM | > 100 µM | > 100 µM |  |  |  |
| O=C1CC(=O)n2cnc3cccc(c32)N1 |  | > 100 µM | > 100 µM | > 100 µM | > 100 µM | > 100 µM | > 100 µM | > 100 µM | > 100 µM |  |  |  |  |  |
| Cc1cc(C)c2c(c1)C(=O)/C(=C/c1ccccc1C(=O)O)C2 |  | > 100 µM | > 100 µM | > 100 µM | > 100 µM | > 100 µM | > 100 µM |  | > 100 µM | > 100 µM | > 100 µM |  |  |  |
| Cc1ccccc1-c1nc2c(C(=O)NCCN(C)C)cccc2[nH]1 |  | > 100 µM | > 100 µM | 85.1 µM | > 61.1 µM | > 100 µM |  |  | > 100 µM |  | > 100 µM |  |  |  |
| Cc1cc(=O)[nH]c(NN2C(Cl)C(=O)C2c2ccc([N+](=O)[O-])cc2)n1 (stereo not drawn) |  | 6.6 µM | 22.5 µM | 27.3 µM | 15 µM |  |  |  | 28.8 µM | 29.7 µM | 31.1 µM |  |  |  |
| Cc1cc2c([nH]c3ccccc32)c(O)c1-c1c(C)cc2c([nH]c3ccccc32)c1O |  |  | 23.8 µM | 30.7 µM | 25.9 µM | 21.7 µM | 33 µM | 28.2 µM | 28.8 µM | 31.2 µM | 22.4 µM | 10.1 µM | 12.3 µM | 15 µM |
| Cn1c(-c2ccc(/C=N/NC(=S)N/N=C/c3ccc(-c4c[n+]5ccsc5n4C)cc3)cc2)c[n+]2ccsc12 |  | > 100 µM | > 100 µM |  |  | > 100 µM | > 100 µM | > 100 µM | > 100 µM | > 100 µM | > 100 µM |  |  |  |
| c1ccc(CN2CCC(Nc3ccccc3)(c3nnnn3Cc3ccccc3)CC2)cc1 |  | 88.3 µM | 97.9 µM | 34.5 µM |  | 33.3 µM | 88.9 µM | > 100 µM | > 100 µM | > 100 µM | 10.5 µM |  |  |  |
| COc1cccc(N[C@@H]2c3cc4c(cc3C(c3cc(OC)c(O)c(OC)c3)[C@H]3C(=O)OCC32)OCO4)c1 (stereo partly drawn) |  | 2.69 µM | 2.39 µM | 9.33 µM | 14.1 µM | 7.06 µM |  |  | 87.9 µM |  | 3.79 µM |  |  |  |
| Nc1nc(Cl)cc(NC23CC4CC(CC(C4)C2)C3)n1 |  | > 100 µM | > 100 µM | > 100 µM | > 100 µM | > 100 µM | > 100 µM | > 100 µM | > 100 µM |  | > 100 µM |  |  |  |
| O=c1oc(C(C(F)(F)F)C(F)(F)F)nc2ccccc12 |  | > 100 µM | > 100 µM | > 100 µM | > 100 µM |  | > 100 µM | > 100 µM | > 100 µM | > 100 µM | > 100 µM |  |  |  |
| NCc1cccc(O)c1O |  | > 100 µM | > 100 µM | > 100 µM | > 100 µM | > 100 µM |  |  | > 100 µM | > 100 µM |  |  |  |  |
| O=C1NC(=O)C(C(CC(=O)c2ccc(Cl)cc2)c2ccc(Cl)cc2)C(=O)N1 (stereo not drawn) |  | > 100 µM | > 100 µM | > 100 µM | > 100 µM | > 100 µM | > 100 µM | > 100 µM | > 100 µM |  | > 100 µM |  |  |  |
| Cc1ccccc1N=C(N)Nc1ccccc1C |  | > 100 µM | > 100 µM |  | > 100 µM | > 100 µM | > 100 µM | > 100 µM | > 100 µM | > 100 µM | 62.1 µM |  |  |  |
| Cc1ccc(S(=O)(=O)Nc2nnc(S(N)(=O)=O)s2)cc1 |  |  | > 100 µM | > 100 µM | > 100 µM | > 100 µM | > 100 µM | > 100 µM | > 100 µM | > 100 µM | > 100 µM |  |  |  |
| CC(C)[C@H](NC(=O)[C@H](C(C)C)N(Cc1ccccc1)Cc1ccccc1)C(=O)N(C)[C@H](C(=O)N1CCC[C@H]1C(=O)N(C)[C@H](C)C(=O)NCc1ccc(Cl)cc1)C(C)C (Bn2Val-V[NMeV]P[dNMeA]-{NH(4-Cl-benzyl)}) |  | 7.43 µM | 41.2 µM | 17.9 µM | > 100 µM | > 100 µM | 11.8 µM | 79.8 µM | > 100 µM | > 100 µM |  |  |  |  |
| CC(C)(C)n1c(=O)[nH]c(=O)n1C(C)(C)C |  | > 100 µM | > 100 µM | > 100 µM | > 100 µM | > 100 µM | > 100 µM |  | > 100 µM | > 100 µM | > 100 µM |  |  |  |
| O=c1c(-c2ccccc2)c(SCCO)n(-c2ccccc2)c(=S)n1-c1ccccc1 |  | > 100 µM | > 100 µM |  | > 100 µM | > 100 µM |  | > 100 µM | > 100 µM | > 100 µM |  |  |  |  |
| C/C(=N\NC(=S)N(C)C)c1cccnn1 |  |  | > 100 µM |  | > 100 µM | > 100 µM | > 100 µM | > 100 µM | > 100 µM | > 100 µM | > 100 µM |  |  |  |
| CN(C)CCn1c(CO)nc2c1c(=O)n(C)c(=O)n2C |  | > 100 µM | > 100 µM |  | > 100 µM | > 100 µM | > 100 µM | > 100 µM | > 100 µM | > 100 µM | > 100 µM |  |  |  |
| c1ccc(/C(=N/Nc2ccncn2)c2ccccn2)cc1 |  | > 100 µM | > 100 µM |  | > 100 µM | 93 µM | > 100 µM | > 100 µM | > 100 µM |  | > 100 µM |  |  |  |
